Source: US11421006B2, “T cell epitopes from Cockroach and methods of making and using same” (LA JOLLA INSTITUTE FOR ALLERGY AND IMMUNOLOGY, priority 2012, dated 2022)
Values joined by “and” are separate entries in the source; they are usually repeats but may differ in a detail not shown here. Identical values can stand only once.

Tested on: Bla g-specific T cells (PBMC)
Assay: ELISPOT assays: IL-5, IFN-γ and IL-10 production by in vitro expanded PBMC of Cockroach-allergic donors
Type: cell-based, human
Settings: for IFNγ / IL-5: individual peptide, one line per responding donor; for Total SFCs: IL-5 plus IFN-γ, summed over responding donors; for Cumulative Response: cumulative over regions ranked by total SFCs; for Donors Responding: number of allergic donors (34 tested) with T cell response to the region; for % Total Response: share of total Bla g specific response; for POST-SIT IFNg / POST-SIT IL-5 / POST-SIT IL-10: 6 months after initiation of SIT; for PRE-SIT IL-5 / PRE-SIT IL-10 / PRE-SIT IFNg: before SIT; for PRE-SIT IFNg: one line per donor/peptide
Description: In vitro expansion of Bla g-specific T cells: PBMC were cultured in RPMI 1640 (V Scientific, Tarzana, Calif.) supplemented with 5% human serum (Cellgro, Herndon, Va.) at a density of 2×10^6 cells/ml in 24-well plates (BD Biosciences, San Jose, Calif.) and stimulated with 25 μg/ml German Cockroach (Blatella germanica; Bla g) extract (Greer, Lenoir, N.C.), or individual peptides. […] On day 14, cells were harvested and screened for reactivity against Bla g-specific peptide pools or individual peptides. ELISPOT assays: The production of IL-5, IFN-γ, and IL-10 was analyzed in ELISPOT assays. […] Cells were then incubated at a density of 1×10^5/well either with peptide pools or individual peptides (10 μg/ml), German Cockroach extract (25 μg/ml), PHA (10 μg/ml), or medium (containing 1% DMSO corresponding to the percentage of DMSO in the pools/peptides) as a control. […] Louis, Mo.). Spots were counted by computer-assisted image analysis (Zeiss, KS-ELISPOT reader, Munich, Germany). Each assay was performed in triplicate. The level of statistical significance was determined with a Student's t-test using the mean of triplicate values of the response against relevant pools or individual peptides versus the response against the DMSO control.

| Sequence | IFNγ | IL-5 | Total SFCs | Cumulative Response | Donors Responding | % Total Response | POST-SIT IFNg | POST-SIT IL-5 | POST-SIT IL-10 | PRE-SIT IL-5 | PRE-SIT IL-10 | PRE-SIT IFNg | T cell response pattern (IL-5 / IFN-γ), in words |
| --- | --- | --- | --- | --- | --- | --- | --- | --- | --- | --- | --- | --- | --- |
| LRKAFDAFDREKSGS (listed as Blattella germanica) | 90 SFC | 327 SFC |  |  |  |  |  |  |  |  |  |  |  |
| MVGTILEMLGTRLDQ (listed as Blattella germanica) | 0 SFC | 267 SFC |  |  |  |  |  |  |  |  |  |  |  |
| ALREKVLGLPAIKAW (listed as Blattella germanica) | 843 SFC and 100 SFC and 0 SFC and 183 SFC and 147 SFC and 1690 SFC | 0 SFC (3×) and 267 SFC and 380 SFC and 1087 SFC |  |  |  |  |  |  |  |  |  |  |  |
| HMAKEDLVANQPNLK (listed as Blattella germanica) | 610 SFC | 273 SFC |  |  |  |  |  |  |  |  |  |  |  |
| SGTVDFDEFMEMMTG (listed as Blattella germanica) [Region 22, Bla g 6 position 140] | 0 SFC | 57 SFC | 57 SFCs | 99.4% | 1 | 0.2% |  |  |  |  |  |  |  |
| FLLSYGEKDFEDYRF (listed as Blattella germanica) | 0 SFC (2×) and 77 SFC and 127 SFC | 1537 SFC and 0 SFC and 203 SFC and 193 SFC |  |  |  |  |  |  |  |  |  |  |  |
| PELQNFLNFLEANGL (listed as Blattella germanica) [Region 4, Bla g 1 position 281] | 323 SFC | 0 SFC | 323 SFCs | 94.5% | 1 | 1.3% |  |  |  |  |  |  |  |
| ISSQYYIQQNGNLCY (listed as Blattella germanica) [Region 8, Bla g 2 position 296] | 153 SFC | 0 SFC | 153 SFCs | 99.1% | 1 | 0.6% |  |  |  |  |  |  |  |
| HFFIGDFFVDHYYSE (listed as Blattella germanica) [Region 9, Bla g 2 position 321] | 250 SFC | 0 SFC | 250 SFCs | 96.8% | 1 | 1.0% |  |  |  |  |  |  |  |
| EFVTLAAKFIIEEDS (listed as Blattella germanica) [Region 19, Bla g 6 position 71] | 0 SFC | 443 SFC | 443 SFCs | 91.8% | 1 | 1.8% |  |  |  |  |  |  |  |
| MVGTILEMLGHRLDD (listed as Blattella germanica) [Region 24, Bla g 6 position 31] | 0 SFC | 50 SFC | 317 SFCs | 95.8% | 2 | 1.3% | 0 SFC/10^6 | 0 SFC/10^6 | 0 SFC/10^6 | 50 SFC/10^6 | 0 SFC/10^6 | 0 SFC/10^6 |  |
| FAVATITHAAELQRV (listed as Blattella germanica) [Region 5, Bla g 2 position 11] | 855 SFC | 0 SFC | 855 SFCs | 86.9% | 1 | 3.5% |  |  |  |  |  |  | only associated with IFN-γ production |
| GNQNFLTVFDSTSCN (listed as Blattella germanica) [Region 7, Bla g 2 position 46] | 55 SFC | 0 SFC | 55 SFCs | 99.6% | 1 | 0.2% |  |  |  |  |  |  | only associated with IFN-γ production |
| PLYKLVHVFINTQYA (listed as Blattella germanica) [Region 6, Bla g 2 position 26] | 240 SFC | 0 SFC | 240 SFCs | 97.8% | 1 | 1.0% |  |  |  |  |  |  |  |
| VLGLPAIKAWVAKRP (listed as Blattella germanica) | 50 SFC and 73 SFC | 0 SFC and 133 SFC |  |  |  |  |  |  |  |  |  |  |  |
| IVQTLNAMPEYQNLL (listed as Blattella germanica) | 153 SFC | 87 SFC |  |  |  |  |  |  |  |  |  |  |  |
| PEQIQLLKKAFDAFD (listed as Blattella germanica) [Region 23, Bla g 6 position 6] | 0 SFC | 1172 SFC and 73 SFC | 1245 SFCs | 66.6% | 2 | 5.1% |  |  |  |  |  |  | only IL-5 production |
| PEFQSIVQTLNAMPE (listed as Blattella germanica) | 87 SFC | 0 SFC |  |  |  |  |  |  |  |  |  |  |  |
| GYITTNVLREILKEL (listed as Blattella germanica) [Region 25] | 0 SFC | 50 SFC | 50 SFCs | 100.0% | 1 | 0.2% | 0 SFC/10^6 | 0 SFC/10^6 | 0 SFC/10^6 | 50 SFC/10^6 | 0 SFC/10^6 | 0 SFC/10^6 |  |
| EEFVSLASRFLVEED (listed as Blattella germanica) | 220 SFC | 0 SFC |  |  |  |  |  |  |  |  |  |  |  |
| EQISVLRKAFDAFDR (listed as Blattella germanica) | 0 SFC | 340 SFC |  |  |  |  |  |  |  |  |  |  |  |
| EVVKANGGYLAAGKL (listed as Blattella germanica) | 80 SFC and 380 SFC | 467 SFC and 0 SFC |  |  |  |  |  |  |  |  |  |  |  |
| FETIVVTVDSLPEFK (listed as Blattella germanica) [Region 1, Bla g 1 position 351] | 167 SFC | 0 SFC | 167 SFCs | 98.5% | 1 | 0.7% |  |  |  |  |  |  |  |
| PEFQSIVQTLNAMPEYQNLL (listed as Blattella germanica) [Region 3, Bla g 1 position 40] |  |  | 327 SFCs | 93.2% | 2 | 1.3% | 0 SFC/10^6 | 0 SFC/10^6 | 0 SFC/10^6 | 87 SFC/10^6 | 0 SFC/10^6 | 153 SFC/10^6 |  |
| SMPFGKTPVLEIDGK (listed as Blattella germanica) [Region 11, Bla g 5 position 46] | 57 SFC and 250 SFC | 0 SFC and 567 SFC | 874 SFCs | 83.4% | 2 | 3.6% |  |  |  |  |  |  |  |
| EAMEKELREAFRLYD (listed as Blattella germanica) [Region 21, Bla g 6 position 86] | 0 SFC | 53 SFC | 53 SFCs | 99.8% | 1 | 0.2% |  |  |  |  |  |  |  |
| GEPIRFLLSYGEKDF (listed as Blattella germanica) | 205 SFC | 0 SFC |  |  |  |  |  |  |  |  |  |  |  |
